Experimental data from PMC11218446, “Antibacterial efficacy and membrane mechanism of action of the Serratia-derived non-ionic lipopeptide, serrawettin W2-FL10” (Microbiology Spectrum, 2024).
Where “and” joins values, the source holds several entries; their conditions need not be identical. Equal entries are not always repeated.

Assays:
[1] = Oligomer detection by ESI-HRMS; format: physicochemical; conditions: MaxEnt 3 mass spectrum (Fig. 1C)
MRSA Xen 30 = test: Membrane depolarization assay, DiSC3(5); format: cell-based, Staphylococcus aureus
Experimental: (§1) The membrane depolarization capability (ability to disrupt membrane potential) of the W2-FL10 against S. aureus ATCC 25923, S. aureus RN4220, or MRSA Xen 30 was determined using the voltage-sensitive fluorescent probe, DiSC3(5) ([20]). Briefly, black 96-well plates were prepared with W2-FL10 at 12.5 µg/mL and 25 µg/mL, while 4 and 8 µg/mL of melittin were used as a positive depolarization control, and the plates were air dried as described in the “Antibacterial activity: broth microdilution assay” section. The S. aureus strains were inoculated into MHB and grown to the mid-log phase (OD600 of 0.5–0.6). Cells were harvested by centrifugation at 3,000 rpm for 10 min and resuspended in HEPES buffer (5 mM, pH 7.4, containing 20 mM glucose; 100 mM KCl) to OD600 of 0.05. Thereafter, DiSC3(5) (stock concentration of 400 µM in 100% DMSO) was added to the cell suspension to a final concentration of 0.4 µM, and cells were incubated in the dark at room temperature for 40 min. Cell suspensions (100 µL) were then dispensed into the wells of the black 96-well plate. Sterile broth and the OD-adjusted inoculum with DiSC3(5) were included as a non-fluorescent control, sterile broth with DiSC3(5) was included as a sterility control, and melittin was included as membrane depolarization control. All the tests were performed in triplicate, with independent duplicates. Fluorometric readings of the plate were conducted at 1 min intervals over 12 min (readings began 60 s after cells were added to the plates) using a Tecan Spark at 622 nm excitation wavelength and 670 nm emission wavelength. Statistical comparison of the kinetic trends elicited by the treatment with peptide with the control (cells alone) was done using two-way ANOVA with Bonferroni’s post hoc test.

S. aureus ATCC 25923 = test: Membrane depolarization assay, DiSC3(5); format: cell-based, Staphylococcus aureus
Experimental: as §1

S. aureus RN4220 = test: Membrane depolarization assay, DiSC3(5); format: cell-based, Staphylococcus aureus
Experimental: as §1

B. subtilis ATCC 6051 = test: Broth microdilution assay (OD 600 nm); format: cell-based, Bacillus subtilis
Experimental: Serrawettin W2-FL10 (95% pure) was tested for antibacterial activity using a broth microdilution susceptibility assay ([6]), with melittin included as an antibiotic control. The serrawettin W2-FL10 was prepared in 70% MeCN to 1.00 mg/mL, from which aliquots were prepared using 70% MeCN to a concentration of 50 µg/mL or 500 µg/mL, while aliquots of melittin were prepared using analytical quality H2O to 128 µg/mL. Fifty microliters of the respective W2-FL10 aliquots or melittin were dispensed into a clear 96-well plate and a microdilution (in 70% MeCN for W2-FL10 or analytical quality H2O for melittin) was performed within the plate. The plate was air-dried to remove the solvent and placed in a desiccator with chloroform for 20 min for sterilization.
All the cultures (inoculated into 5 mL MHB, or 5 mL TSB for Listeria and Enterococcus strains) were incubated at 37°C to reach an optical density (OD) of 0.4 at 600 nm (∼10^7 CFU/mL). A 1:20 dilution of the test strain (final concentration of ∼10^5 CFU/mL) was prepared and 100 µL was dispensed into each well (final concentration of W2-FL10 at 1.5–125 µg/mL and melittin at 2–32 µg/mL). Sterile broth and the OD-adjusted inoculum were included as positive controls, while sterile broth (no inoculum) was included as a negative control. The 96-well plate was incubated for 18 h at 37°C. All the tests were performed in triplicate, with independent duplicates. Following incubation, the absorbance was measured using a microtiter plate reader at 600 nm. The 50% growth inhibition concentration (IC50) was determined using GraphPad Prism version 5 for Windows [GraphPad Software, San Diego, USA (www.graphpad.com)]. […]
The “top” and “bottom” are the maximum and minimum inhibition responses, respectively, for a particular set of dose-response data, while the activity slope is related to the Hill slope of a sigmoidal binding curve ([16]). […] In addition to the MIC and IC50 inhibition parameters, an inhibition concentration factor (ICF), was calculated as outlined in Rautenbach et al. ([17]). […]

With CCCCCCCC1CC(=O)N[C@H](CC(C)C)C(=O)N[C@@H](CO)C(=O)N[C@@H]([C@@H](C)O)C(=O)N[C@H](Cc2ccccc2)C(=O)N[C@@H](CC(C)C)C(=O)O1 (stereo partly shown) [W2-FL10, serrawettin W2-FL10] the oligomers detected [1] was “dimers, trimers, tetramers, and pentamers”, the “depolarization, in words” value (MRSA Xen 30; 12.5 µg/mL, up to 720 s) was “appreciable depolarization” and the “time at which the DiSC3(5) fluorescent signal doubled” value (“time” below) (MRSA Xen 30; 25 µg/mL) was 420 s. The “increase in DiSC3(5) fluorescent signal, in words” value (S. aureus ATCC 25923; 12.5 µg/mL, up to 720 s (Fig. 4A)) was “negligible”, the “time” value (S. aureus ATCC 25923; 25 µg/mL) was 660 s and the “increase in DiSC3(5) fluorescent signal, in words” value (S. aureus RN4220; 12.5 µg/mL, up to 720 s (Fig. 4C)) was “negligible”. For the same compound, the “time” value (S. aureus RN4220; 25 µg/mL) was 480 s, the “IC50 ± SD” value (B. subtilis ATCC 6051; 50% growth inhibition, sigmoidal curve fit, n = 3) was 13.4 ± 0.8 (3) µg/mL and the Selectivity index (B. subtilis ATCC 6051; LC50 (CHO)/IC50) was 2.2. The MIC (B. subtilis ATCC 6051; ≥90% growth inhibition, OD 600 nm, MHB, 18 h 37°C) was 31.3 μg/mL and 31.3 (42.7) μg/mL.
